Test results reported in patent US10981926B2 (Janssen Pharmaceutica NV, priority 2016, dated 2021).

What was measured:
[1] = target: T1, wild-type Androgen Receptor (AR-wt) (Homo sapiens (Human), UniProt P10275); assay: LNCaP-AR-wt ANT reporter assay (antagonist mode); type: cell-based; conditions: for IC50: read-out: LNCaP-AR-wt ANT pIC50 (converted); for Emax: read-out: LNCaP-AR-wt ANT MAX % Inh
[2] = target: T2, F876L mutant Androgen Receptor (AR-F876L) (Homo sapiens (Human), UniProt P10275, F877L); assay: LNCaP-AR-F876L AG reporter assay (agonist mode); type: cell-based; conditions: for EC50: read-out: LNCaP-AR-F876L AG pEC50 (converted); for Emax: read-out: LNCaP-AR-F876L AG MAX % Stim
T2 sequence (P10275 whole entry F877L): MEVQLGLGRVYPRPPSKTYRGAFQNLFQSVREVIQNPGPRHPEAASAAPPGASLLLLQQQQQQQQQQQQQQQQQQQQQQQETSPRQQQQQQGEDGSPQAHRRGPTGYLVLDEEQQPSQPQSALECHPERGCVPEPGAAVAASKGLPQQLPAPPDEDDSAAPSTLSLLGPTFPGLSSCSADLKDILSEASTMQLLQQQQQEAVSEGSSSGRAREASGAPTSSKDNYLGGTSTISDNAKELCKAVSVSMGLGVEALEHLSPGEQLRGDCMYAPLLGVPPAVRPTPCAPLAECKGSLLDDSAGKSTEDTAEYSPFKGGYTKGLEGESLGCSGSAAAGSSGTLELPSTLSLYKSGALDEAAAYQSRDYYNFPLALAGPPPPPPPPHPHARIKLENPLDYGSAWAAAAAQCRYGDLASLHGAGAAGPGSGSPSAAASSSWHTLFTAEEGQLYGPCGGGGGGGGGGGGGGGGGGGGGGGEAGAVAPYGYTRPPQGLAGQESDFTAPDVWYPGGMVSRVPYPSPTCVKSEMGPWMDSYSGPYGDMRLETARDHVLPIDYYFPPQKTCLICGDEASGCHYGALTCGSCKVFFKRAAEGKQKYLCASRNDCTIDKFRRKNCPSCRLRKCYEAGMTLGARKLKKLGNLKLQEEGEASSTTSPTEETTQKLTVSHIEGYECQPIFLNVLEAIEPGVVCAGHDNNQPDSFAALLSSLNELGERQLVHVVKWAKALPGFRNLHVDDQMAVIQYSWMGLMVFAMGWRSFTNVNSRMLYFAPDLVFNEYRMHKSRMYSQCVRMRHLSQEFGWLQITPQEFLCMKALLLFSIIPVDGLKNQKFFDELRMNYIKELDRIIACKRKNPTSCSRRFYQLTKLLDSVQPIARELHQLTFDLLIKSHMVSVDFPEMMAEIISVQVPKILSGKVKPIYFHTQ

[3] = target: T2, F876L mutant Androgen Receptor (AR-F876L); assay: LNCaP-AR-F876L ANT reporter assay (antagonist mode); type: cell-based; conditions: for IC50: read-out: LNCaP-AR-F876L ANT pIC50 (converted); for Emax: read-out: LNCaP-AR-F876L ANT MAX % Inh
rGABA-gated Cl− channel = assay: GABA-Gated Cl Channel Antagonist Radioligand Binding Assay; design: species or system rat; conditions: 10 μM single point, [35S]-TBPS, cerebral cortex membrane homogenates
Protocol: GABA-gated C1 Chanel assays were performed at CEREP according to the following method. Membrane homogenates of cerebral cortex (120 μg protein) were incubated for 120 min at 22° C. with 3 nM […] in the absence or presence of the test compound in a buffer containing 50 mM Na2HPO4/KH2PO4 (pH 7.4) and 500 mM NaCl. Nonspecific binding was determined in the presence of 20 μM picrotoxinin. Following incubation, the samples were filtered rapidly under vacuum through glass fiber filters (GF/B, Packard) presoaked with 0.3% PEI and rinsed several times with ice-cold 50 mM Tris-HCl using a 96-sample cell harvester (Unifilter, Packard). The filters were dried then counted for radioactivity in a scintillation counter (Topcount, Packard) using a scintillation cocktail (Microscint 0, Packard). The results are expressed as a percent inhibition of the control radio ligand specific binding. The standard reference compound is picrotoxinin, which was tested in each experiment at several concentrations to obtain a competition curve from which its IC50 was calculated. In this assay, the following representative compounds disclosed herein had recorded activities at a 10 μM single point concentration in the GABA-gated Cl— Channel Binding Assay.

[4] = target: T1, wild-type Androgen Receptor (AR-wt); assay: LNCaP-AR-wt AG reporter assay (agonist mode); type: cell-based; conditions: for EC50: read-out: LNCaP-AR-wt AG pEC50 (converted); for Emax: read-out: LNCaP-AR-wt AG MAX % Stim
[5] = antagonist mode, pIC50 = −Log10(IC50 in Molar)
[6] = maximum % inhibition of R1881 control response over the tested concentration range
[7] = agonist mode, pEC50 = −Log10(EC50 in Molar)
[8] = maximum % stimulation (agonist response) over the tested concentration range
[9] = antagonist mode, maximum % inhibition of R1881 control response over tested concentration range
[10] = agonist mode, maximum % stimulation over tested concentration range

T1 sequence (P10275 whole entry): as the sequence (P10275 whole entry F877L) above, with L877F counted along it

Row | Molecule | rGABA-gated Cl− channel % inh @10 μM (rGABA-gated Cl− channel) [%] | IC50 [1, 5] [µM] | EC50 [2, 7] [µM] | IC50 [3, 5] [µM] | EC50 [4, 7] [µM] | Emax [1, 9] [%] | Emax [2, 10] [%] | Emax [3, 9] [%] | Emax [4, 10] [%] | also measured
1 | 3-chloro-5-[8-[2-(1-methyl-4-piperidyl)indazol-5-yl]-5-oxo-7-thioxo-6,8-diazaspiro[3.4]octan-6-yl]pyridine-2-carbonitrile [Cpd 181] | 26.0 | – | – | – | – | – | – | – | – | LNCaP-AR-wt ANT pIC50 [1, 5]: 6.47; LNCaP-AR-wt ANT MAX % Inh [1, 6]: 96.8%; LNCaP-AR-F876L AG pEC50 [2, 7]: <4.82; LNCaP-AR-F876L AG MAX % Stim [2, 8]: 0.3%; LNCaP-AR-F876L ANT pIC50 [3, 5]: 6.80; LNCaP-AR-F876L ANT MAX % Inh [3, 6]: 101.9%; LNCaP-AR-wt AG pEC50 [4, 7]: <4.82; LNCaP-AR-wt AG MAX % Stim [4, 8]: 1.9%
2 | CN1CC[C@H](Oc2ccc(N3C(=S)N(c4cnc(C#N)c(C(F)(F)F)c4)C(=O)C34CCC4)cc2)[C@@H](F)C1 (racemic) [Cpd 92, 5-[8-[(3SR, 4SR)-4-[(3-fluoro-1-methyl-4-piperidyl)oxy]phenyl]-5-oxo-7-thioxo-6,8-diazaspiro[3.4]octan-6-yl]-3-(trifluoromethyl)pyridine-2-carbonitrile] | 73.4 | 0.0776 | > 15.1 | 0.0603 | > 15.1 | – | – | – | – | Emax [1, 6]: 101%; Emax [2, 8]: 0.5%; Emax [3, 6]: 98.2%; Emax [4, 8]: 0.3%
3 | N#Cc1ncc(N2C(=O)C3(CCC3)N(c3ccc(O[C@H]4CCNC[C@@H]4F)cc3)C2=S)cc1C(F)(F)F (racemic) [Cpd 95, 5-[8-[(3SR, 4SR)-4-[(3-fluoro-4-piperidyl)oxy]phenyl]-5-oxo-7-thioxo-6,8-diazaspiro[3.4]octan-6-yl]-3-(trifluoromethyl)pyridine-2-carbonitrile] | 26.5 | 0.112 | > 15.1 | 0.0447 | > 15.1 | – | – | – | – | Emax [1, 6]: 101%; Emax [2, 8]: 0.3%; Emax [3, 6]: 99.7%; Emax [4, 8]: 0.1%
4 | N#Cc1ncc(N2C(=O)C3(CCC3)N(c3ccc(O[C@H]4CCNC[C@H]4F)cc3)C2=S)cc1C(F)(F)F (racemic) [Cpd 96, 5-[8-(3RS, 4SR) [4-[(3-fluoro-4-piperidyl)oxy]phenyl]-5-oxo-7-thioxo-6,8-diazaspiro[3.4]octan-6-yl]-3-(trifluoromethyl)pyridine-2-carbonitrile] | 26.5 | 0.126 | > 15.1 | 0.0741 | > 15.1 | – | – | – | – | Emax [1, 6]: 100%; Emax [2, 8]: 0.4%; Emax [3, 6]: 99.9%; Emax [4, 8]: 0.9%
5 | N#Cc1ncc(N2C(=O)C3(CCC3)N(c3ccc(C4=CCCC(CO)O4)cc3)C2=S)cc1C(F)(F)F (centres unmarked) [Cpd 103, 5-(5-(4-(2-(hydroxymethyl)-3,4-dihydro-2H-pyran-6-yl)phenyl)-8-oxo-6-thioxo-5,7-diazaspiro[3.4]octan-7-yl)-3-(trifluoromethyl)picolinonitrile] | 82.7 | – | – | – | – | – | – | – | – | –
6 | N#Cc1ncc(N2C(=O)C3(CCC3)N(c3ccc4c(ccn4CCO)c3)C2=S)cc1C(F)(F)F [Cpd 248, 5-[8-[1-(2-hydroxyethyl)indol-5-yl]-5-oxo-7-thioxo-6,8-diazaspiro[3.4]octan-6-yl]-3-(trifluoromethyl)pyridine-2-carbonitrile] | – | 0.417 | > 15.1 | 0.372 | > 15.1 | 0 | 0.4 | 102 | 0 | –
7 | N#Cc1ncc(N2C(=O)C3(CCC3)N(c3ccc4c(ccn4C4CCNCC4)c3)C2=S)cc1C(F)(F)F [Cpd 249, 5-[8-Oxo-5-(1-piperidin-4-yl-1H-indol-5-yl)-6-thioxo-5,7-diaza-spiro[3.4]oct-7-yl]-3-trifluoromethyl-pyridine-2-carbonitrile] | – | 0.407 | > 15.1 | 0.316 | > 15.1 | 0 | 0 | 103 | 0 | –
8 | N#Cc1ncc(N2C(=O)C3(CCC3)N(c3ccc4ccn(CCO)c4c3)C2=S)cc1C(F)(F)F [Cpd 250, 5-[8-[1-(2-hydroxyethyl)indol-6-yl]-5-oxo-7-thioxo-6,8-diazaspiro[3.4]octan-6-yl]-3-(trifluoromethyl)pyridine-2-carbonitrile] | – | 1.17 | > 15.1 | 0.977 | > 15.1 | 0 | 0.1 | 101 | 0 | –
9 | CN1CCC(n2ccc3cc(N4C(=S)N(c5cnc(C#N)c(C(F)(F)F)c5)C(=O)C45CCC5)ccc32)CC1 [Cpd 251, 5-[8-[1-(1-methyl-4-piperidyl)indol-5-yl]-5-oxo-7-thioxo-6,8-diazaspiro[3.4]octan-6-yl]-3-(trifluoromethyl)pyridine-2-carbonitrile] | – | 0.288 | > 15.1 | 0.174 | > 15.1 | 0 | 0.1 | 101 | -0.1 | –
10 | N#Cc1ncc(N2C(=O)C3(CCC3)N(c3cnc(OC4CCN(CCO)CC4)nc3)C2=S)cc1C(F)(F)F [Cpd 252, 5-[8-[2-[[1-(2-hydroxyethyl)-4-piperidyl]oxy]pyrimidin-5-yl]-5-oxo-7-thioxo-6,8-diazaspiro[3.4]octan-6-yl]-3-(trifluoromethyl)pyridine-2-carbonitrile] | – | 0.407 | > 15.1 | 0.832 | > 15.1 | 0 | -0.1 | 100 | -0.1 | –
11 | Cc1cc(N2C(=O)C3(CCC3)N(c3cnc(OC4CCN(CCO)CC4)nc3)C2=S)cnc1C#N [Cpd 254, 5-[8-[2-[[1-(2-hydroxyethyl)-4-piperidyl]oxy]pyrimidin-5-yl]-5-oxo-7-thioxo-6,8-diazaspiro[3,4]octan-6-yl]-3-methyl-pyridine-2-carbonitrile] | – | 0.891 | > 15.1 | 0.708 | > 15.1 | 0 | 0.4 | 99.3 | -0.1 | –
12 | Cn1c(CCO)nc2cc(N3C(=S)N(c4cnc(C#N)c(C(F)(F)F)c4)C(=O)C34CCC4)ccc21 [Cpd 255, 5-[8-[2-(2-hydroxyethyl)-1-methyl-benzimidazol-5-yl]-5-oxo-7-thioxo-6,8-diazaspiro[3.4]octan-6-yl]-3-(trifluoromethyl)pyridine-2-carbonitrile] | – | 2.51 | > 15.1 | 2.75 | > 15.1 | 94.7 | 0.1 | 99 | 0.4 | –
13 | CN1CCC(c2nc3cc(N4C(=S)N(c5cnc(C#N)c(C(F)(F)F)c5)C(=O)C45CCC5)ccc3[nH]2)CC1 [Cpd 256, 5-[8-[2-(1-methyl-4-piperidyl)-1H-benzimidazol-5-yl]-5-oxo-7-thioxo-6,8-diazaspiro[3.4]octan-6-yl]-3-(trifluoromethyl)pyridine-2-carbonitrile] | – | 4.79 | > 15.1 | 1.35 | > 15.1 | 95.9 | 0.6 | 96.8 | 0.4 | –
